Source: patent US20200338044A1 (PCI Biotech AS, priority 2016, published 2020)
Entries after “also recorded” stand apart in the source; their conditions may differ.

Experiments:
[1] = tested on: TFK-1 cell line; assay: PCI with gemcitabine, MTT cytotoxicity assay; type: cell-based, human
Description: (§1) Di (monoethanolammonium) meso-tetraphenyl chlorin disulfonate (TPCS2a/Amphinex®) was provided by PCI Biotech AS (Lysaker, Norway). Amphinex batch number: FAMP 1002. TPCS2a (in 3% polysorbate 80, 2.8% mannitol, 50 mM Tris pH 8.5) stock solution (0.4 mg/ml) was kept at 4° C. in aliquots and light protected. All work with the photosensitizer was performed under subdued light.
(§2) Illumination of the cells was performed by using Lumisource (PCI Biotech, Oslo). This lamp consists of four standard light tubes (18 W/tube, Osram L 18/67), which emit blue light with a main peak at approximately 435 nm and was used for excitation of TPCS2a. The irradiance emitted from the blue light source was 12 mW/cm^2 and varied less than 10% across the illumination area (765 cm^2). The light source was air-cooled during light exposure to keep the irradiance stable and prevent cells from hyperthermia.
(§3) Cells were seeded in 96-well or 6-well plates (Nunclon, Nunc, Roskilde, Denmark) and allowed to attach at 37° C. overnight. […]
(§4) The MTT method (tetrazolium dye reduction) was performed 48 h after light exposure with Lumisource. […] The 96 well plates were set on a shaker for 5 minutes before absorbance was measured at 570 nm with a power wave XS2 (Biotek, VT, USA). […]

[2] = tested on: EGI-1 cell line
Description: as §1, §2, §3, §4

[3] = tested on: NCI-H460 human lung cancer tumour cells; assay: Tumour growth of subcutaneous NCI-H460 xenografts after PCI with gemcitabine; type: in vivo, Nude (nu/nu) athymic mice; details: for No. of animals alive at the end of study: 10 animals at start
Description: Nude (nu/nu) athymic mice (female, CD-1 nu/nu strain, at least 6 weeks old) were used which have been used extensively to generate human tumour xenografts and remain the experimental method of choice for testing anti-tumour efficacy of new compounds prior to administration in man. The route of administration of the test substances was intravenous. The dose of Amphinex® was 5 mg/kg, based on earlier mouse studies performed by PCI Biotech AS and collaborators.
There were 6 treatment groups with 10 mice per group. Mice were injected subcutaneously with 7×10^7 cells/mL NCI-H460 tumour cells to allow selection of optimal tumours for inclusion in the study. Tumours of the appropriate size were allocated to the various treatment groups.
Amphinex® was administered intravenously via a tail vein, using a dose volume of 4 mL/kg.
Human NCI-H460 non-small cell lung cancer cells (American Type Culture Collection [ATCC], Maryland, USA, or the European Collection of Cell Cultures [ECACC], Porton Down, UK) were harvested from sub-confluent cultures growing in vitro and the number of viable cells determined. Cells were then re-suspended in sterile phosphate buffered saline (PBS) at a concentration of approximately 7×10^7 cells/mL. Nude (nu/nu) athymic mice were injected subcutaneously in the right flank with approximately 7×10^6 NCI-H460 cells in a volume of 0.1 mL. Animals were examined regularly for the appearance of tumours. When measurable tumours had established in the majority of mice, animals were assigned into 6 treatment groups with a target of up to 10 mice per group. Mice received an intravenous injection of Amphinex when the tumours had reached a size such that the tumour volume was approximately in the range 100 to 150 mm^3 72 hours later.
For tumour illumination each animal was restrained, one at a time, in a metal restraint which allows only the lower flank area, i.e. tumour area plus a 2 mm diameter surrounding area, to be exposed. A 650 nm diode laser (TWI Diode Laser, Quanta System, Italy) was then used to expose the tumour tissue to a light dose of 15 J/cm^2, with a fluence rate of 90 mW/cm^2. Each animal had their tumour exposed to the laser for approximately 167 s, to give the required dose of 15 J/cm^2.
Tumour size was measured at least twice weekly using digital callipers for up to 4 weeks following illumination or until the tumour size (as specified in the UK Home Office Licence) or other clinical signs necessitated removal of that mouse from the study. Tumour dimensions were recorded (length and width), and tumour volumes calculated using the formula (W^2×L)/2, where W is the […] tumour dimension and L is the longest. Animals were terminated if the tumour size had become excessive or any adverse effects were noted.
The tumour dimensions measured over the period of the study—length (L, long) and width (W, short) in mm, were recorded and kept as raw data. The mean tumour volumes on the first day of treatment were reported for each group. Calculations of relative tumour volumes and plots of mean tumour growth curves were performed. Body weight data were also obtained.

[4] = tested on: TFK-1 cells; assay: Colony formation assay after PCI treatment; type: cell-based, human
Description: Cells (25 000 cells/well) were seeded out in 6 well plates (Nunc) and allowed to adhere overnight and subjected to photochemical treatment described above. The cells were placed in the incubator and the culture medium was replaced with fresh culture medium after 3 days incubation. […] Subsequently, cells were washed in H2O and then dried before being evaluated by visual inspection.

[5] = tested on: EGI-1 cell line; assay: Cytotoxicity of gemcitabine without PCI, MTT assay; type: cell-based, human
Text: The cell lines used were TFK-1 and EGI-1, both were obtained from the Department of Cancer Prevention, The Norwegian Radium Hospital, Oslo, Norway. TFK-1 is a human papillary bile duct adenocarcinoma cell line and EGI-1 is a poorly differentiated human bile duct adenocarcinoma cell line. Both cell lines originate from extrahepatic tumours (Saijyo et al., 1995, Tohoku J. Exp. Med., 177:61-71; EGI-1-Cell LINCS Library of Intergrated network-based Cellular Signatures. Available from the website having the URL beginning with “[…] ending with “.hms.harvard.edu/db/cells/50181/”), but are quite different both morphologically and physiologically (Xu et al., 2013, Clinical Cancer Research, January 1; 19(1):118-27; Pignochino et al., 2010, BMC Cancer, 10:631).

[6] = tested on: TFK-1 cell line; assay: Cytotoxicity of gemcitabine without PCI, MTT assay; type: cell-based, human
Text: The cell lines used were TFK-1 and EGI-1, both were obtained from the Department of Cancer Prevention, The Norwegian Radium Hospital, Oslo, Norway. TFK-1 is a human papillary bile duct adenocarcinoma cell line and EGI-1 is a poorly differentiated human bile duct adenocarcinoma cell line. Both cell lines originate from extrahepatic tumours (Saijyo et al., 1995, Tohoku J. Exp. Med., 177:61-71; EGI-1—Cell LINCS Library of Intergrated network-based Cellular Signatures. Available from the website having the URL beginning with “lincs” and ending with “.hms.harvard.edu/db/cells/50181/”), but are quite different both morphologically and physiologically (Xu et al., 2013, Clinical Cancer Research, January 1; 19(1):118-27; Pignochino et al., 2010, BMC Cancer, 10:631).
The MTT method (tetrazolium dye reduction) was performed 48 h after light exposure with Lumisource. The culture medium was removed and cells were incubated in medium containing 0.25 mg/ml MTT (Sigma) for approximately 3 hours before replacement with 100 μl of 99% dimethylsulfoxide (Sigma). The 96 well plates were set on a shaker for 5 minutes before absorbance was measured at 570 nm with a power wave XS2 (Biotek, VT, USA). Wells without cells incubated with MTT-medium only were used for blank subtraction.

[7] = gemcitabine 100 nM alone, no PCI
[8] = 4 hours exposure, up to 1 mM tested, data not shown

Di (monoethanolammonium) meso-tetraphenyl chlorin disulfonate [PCI alone]
effect on cell survival ([1]; photochemical treatment alone, 0.4 μg/ml TPCS2a + blue light): only a modest effect on cell survival | cells killed ([2]; photochemical treatment alone, highest light dose): about 50% | No. of animals alive at the end of study ([3]; Amphinex 5 mg/kg + laser, no gemcitabine): 2 | effect on tumour growth ([3]; Amphinex 5 mg/kg i.v. + laser 15 J/cm^2, without gemcitabine): virtually no effect; also recorded: neither the photochemical treatment alone (PCI alone) nor gemcitabine alone (Gemcitabine 400 mg/kg) had a significant effect on tumour growth | colony forming ability ([4]; PCI alone, illumination time 140 s): still had the ability to form colonies

Nc1ccn([C@@H]2O[C@H](CO)[C@@H](O)C2(F)F)c(=O)n1 [Gemcitabine, 4-amino-1-(2-deoxy-2,2-difluoro-β-D-erythro-pentofuranosyl)pyrimidin-2(1H)-on]
cytotoxic effect [1, 7]: about 50% | cell killing (>90% level) ([5]; 3 000 nM gemcitabine without PCI, 72 hours): this level of cell killing was not obtained | cytotoxic effect [5, 8]: only a very modest cytotoxic effect | sensitivity to gemcitabine (cytotoxicity) ([5]; 72 hours exposure, highest dose employed (up to 3 μM)): insensitive | cytotoxic effect [6, 8]: only a very modest cytotoxic effect | cytotoxicity ([6]; 72 hours exposure, 3 μM gemcitabine): about 50% | effect on cell survival [2, 7]: no effect on cell survival | effect on tumour growth ([3]; gemcitabine 200 mg/kg i.v., PCI: Amphinex 5 mg/kg i.v. + 650 nm 15 J/cm^2): no | effect on tumour growth ([3]; gemcitabine 200 mg/kg i.v., PCI: Amphinex 5 mg/kg i.v. + 650 nm 15 J/cm^2, listed as gemcitabine): neither the photochemical treatment alone (PCI alone) nor gemcitabine alone had a significant effect on tumour growth | No. of animals alive at the end of study ([3]; gemcitabine 200 mg/kg): 5 | effect on tumour growth ([3]; gemcitabine 400 mg/kg i.v., PCI: Amphinex 5 mg/kg i.v. + 650 nm 15 J/cm^2): only a very modest; also recorded: neither the photochemical treatment alone (PCI alone) nor gemcitabine alone (Gemcitabine 400 mg/kg) had a significant effect on tumour growth | No. of animals alive at the end of study ([3]; gemcitabine 400 mg/kg): 6 | colony forming ability ([4]; gemcitabine 10 nM, PCI illumination time 140 s): substantial colony formation was observed | colony forming ability ([4]; gemcitabine 33 nM): some colony formation could be observed | colony forming ability ([4]; gemcitabine 100 nM): unable to form colonies | colony forming ability ([4]; gemcitabine 330 nM): unable to form colonies
